Target: STAT3 (Homo sapiens, UniProt P40763)
Assay: Quantitation of STAT3 degradation in A549 cells by Western blot
Type: cell-based
Parameters: expressed in transfected cells; host or cells: A549
Conditions: read-out: A549 DC50, 24 hours, tested up to 30 μM or 10 μM
Outline: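 A549 cells treated 24 h at 37° C with compound at 30, 10, 3, 1, 0.3 μM or DMSO; RIPA lysates analysed by SDS-PAGE/Western blot for total STAT3, β-actin as loading control, LI-COR fluorescence read-out. DC50 derived by sigmoidal fit of dose-dependent degradation.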

Sequence of STAT3 (P40763 whole entry): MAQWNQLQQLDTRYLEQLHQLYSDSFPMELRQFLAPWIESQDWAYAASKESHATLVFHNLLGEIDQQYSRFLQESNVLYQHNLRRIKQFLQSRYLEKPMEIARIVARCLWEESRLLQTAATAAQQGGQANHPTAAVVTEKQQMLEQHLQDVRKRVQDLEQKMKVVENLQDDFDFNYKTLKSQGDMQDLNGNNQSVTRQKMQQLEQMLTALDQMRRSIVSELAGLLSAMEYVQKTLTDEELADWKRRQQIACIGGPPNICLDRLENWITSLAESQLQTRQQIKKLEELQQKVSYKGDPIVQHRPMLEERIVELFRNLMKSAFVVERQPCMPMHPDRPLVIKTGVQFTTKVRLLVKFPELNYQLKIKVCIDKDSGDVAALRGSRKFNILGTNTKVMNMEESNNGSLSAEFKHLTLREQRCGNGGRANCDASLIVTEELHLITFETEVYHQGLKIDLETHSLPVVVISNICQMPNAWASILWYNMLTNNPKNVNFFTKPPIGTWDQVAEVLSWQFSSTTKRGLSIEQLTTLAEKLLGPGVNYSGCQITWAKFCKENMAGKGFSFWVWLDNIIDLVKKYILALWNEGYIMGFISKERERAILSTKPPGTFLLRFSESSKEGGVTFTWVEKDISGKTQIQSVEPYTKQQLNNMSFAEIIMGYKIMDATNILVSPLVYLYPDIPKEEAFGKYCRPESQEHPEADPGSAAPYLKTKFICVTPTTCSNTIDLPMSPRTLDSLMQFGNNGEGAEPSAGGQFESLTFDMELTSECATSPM

Structure (SMILES)	DC50
Cc1ncsc1-c1ccc(C2(NC(=O)[C@@H]3C[C@@H](O)CN3C(=O)[C@@H](NC(=O)CCCCc3ccc(CO[C@H](C)[C@H](CCC(N)=O)NC(=O)[C@@H]4Cc5cccc6c5N4C(=O)[C@@H](NC(=O)c4cc5cc(C(=O)P(=O)(O)O)ccc5[nH]4)CC6)cc3)C(C)(C)C)CC2)cc1 [Compound I-90, 2-[[(2S,11S)-2-[[(3S,4R)-1-carbamoyl-4-[[4-(4-[[(2S)-1-[(2S,4R)-4-hydroxy-2-([1-[4-(4-methyl-1,3-thiazol-5-yl)phenyl]cyclopropyl]carbamoyl)pyrrolidin-1-yl]-3,3-dimethyl-1-oxobutan-2-yl]carbamoyl]butyl)phenyl]methoxy]pentan-3-yl]carbamoyl]-12-oxo-1-azatricyclo[6.4.1.0^[4,13]]trideca-4(13),5,7-trien-11-yl]carbamoyl]-1H-indole-5-carbonylphosphonic acid]	< 30 µM
Cn1c(=O)n(C2CCC(=O)NC2=O)c2cccc(CCCCCCCC(=O)N3CC[C@H]4CC[C@@H](C(=O)N[C@@H](CCC(N)=O)C(=O)NC(c5ccccc5)c5ccccc5)N4C(=O)[C@@H](NC(=O)c4cc5cc(C(=O)P(=O)(O)O)ccc5[nH]4)C3)c21 (stereo partly drawn) [Compound I-91]	< 30 µM
C/C(=C\C(=O)N[C@H]1CCc2cccc3c2N(C1=O)[C@H](C(=O)N[C@@H](CCC(N)=O)[C@@H](C)OCc1ccc(CCCCC(=O)N[C@H](C(=O)N2C[C@H](O)C[C@H]2C(=O)NC2(c4ccc(-c5scnc5C)cc4)CC2)C(C)(C)C)cc1)C3)c1ccc(C(F)(F)P(=O)(O)O)cc1 [Compound I-92]	> 30 µM
Cc1ncsc1-c1ccc(CNC(=O)[C@@H]2C[C@@H](O)CN2C(=O)[C@@H](NC(=O)CCCCc2cccc(CO[C@H](C)[C@H](CCC(N)=O)NC(=O)[C@@H]3Cc4cccc5c4N3C(=O)[C@@H](NC(=O)c3cc4cc(C(=O)P(=O)(O)O)ccc4[nH]3)CC5)c2)C(C)(C)C)cc1 [Compound I-95, diammonium 2-[[(2S,11S)-2-[[(3S,4R)-1-carbamoyl-4-[[3-(4-[[(2S)-1-[(2S,4R)-4-hydroxy-2-([[4-(4-methyl-1,3-thiazol-5-yl)phenyl]methyl]carbamoyl)pyrrolidin-1-yl]-3,3-dimethyl-1-oxobutan-2-yl]carbamoyl]butyl)phenyl]methoxy]pentan-3-yl]carbamoyl]-12-oxo-1-azatricyclo[6.4.1.0^[4,13]]trideca-4(13),5,7-trien-11-yl]carbamoyl]-1H-indole-5-carbonylphosphonate]	< 30 µM
Cc1ncsc1-c1ccc(CNC(=O)[C@@H]2C[C@@H](O)CN2C(=O)[C@@H](NC(=O)CCC#Cc2ccc(CO[C@H](C)[C@H](CCC(N)=O)NC(=O)[C@@H]3Cc4cccc5c4N3C(=O)[C@@H](NC(=O)c3cc4cc(C(=O)P(=O)(O)O)ccc4[nH]3)CC5)cc2)C(C)(C)C)cc1 [Compound I-96, diammonium 2-[[(2S,11S)-2-[[(3S,4R)-1-carbamoyl-4-[[4-(4-[[(2S)-1-[(2S,4R)-4-hydroxy-2-([[4-(4-methyl-1,3-thiazol-5-yl)phenyl]methyl]carbamoyl)pyrrolidin-1-yl]-3,3-dimethyl-1-oxobutan-2-yl]carbamoyl]but-1-yn-1-yl)phenyl]methoxy]pentan-3-yl]carbamoyl]-12-oxo-1-azatricyclo[6.4.1.0^[4,13]]trideca-4(13),5,7-trien-11-yl]carbamoyl]-1H-indole-5-carbonylphosphonate]	> 30 µM
Cn1c(=O)n(C2CCC(=O)NC2=O)c2ccc(CCCCCCCC(=O)N3CC[C@H]4CC[C@@H](C(=O)N[C@@H](CCC(N)=O)C(=O)NC(c5ccccc5)c5ccccc5)N4C(=O)[C@@H](NC(=O)c4cc5cc(C(=O)P(=O)(O)O)ccc5[nH]4)C3)cc21 (stereo partly drawn) [Compound I-97, 2-[[(5S,8S,10aR)-8-[[(1S)-3-carbamoyl-1-(diphenylmethylcarbamoyl)propyl]carbamoyl]-3-[8-[1-(2,6-dioxopiperidin-3-yl)-3-methyl-2-oxo-1,3-benzodiazol-5-yl]octanoyl]-6-oxo-octahydropyrrolo[1,2-a][1,5]diazocin-5-yl]carbamoyl]-1H-indole-5-carbonylphosphonic acid]	< 30 µM

From patent US12077555B2, “STAT degraders and uses thereof” (Kymera Therapeutics, Inc., priority 2019, dated 2024)
